Source: PMC9602407, “Purification, Identification and Molecular Docking of Immunomodulatory Peptides from the Heads of Litopenaeus vannamei” (Foods, 2022)
Where a SMILES comes first, the peptide text is derived from it. Where no end group is shown, it is not given here.

Legend:
[1] = system: pepsin and trypsin; test: In vitro gastrointestinal digestion stability (pepsin, then trypsin), read out as MRPR; assay type: in vitro ADME; conditions: for Maximal increase of MRPR through gastrointestinal digestion compared with the untreated group: 2% (w/w) pepsin pH 2.0 37 °C 2 h, then 2% (w/w) trypsin pH 7.5 37 °C 2 h, 1 mg/mL peptide
Experimental: The macrophages were cultured in a medium (containing 90% DMEM medium, 10% FBS, and 1% double antibody) at 37 °C and 5% CO2. The MRPR was determined following to the MTT assay used by Xu et al.. The density of the log-phase cells was adjusted to 1 × 10^5 cells/mL, and 100 μL/well of cell suspension was seeded in 96-well plates and incubated overnight in an incubator (BB-150-CO2 incubator, Thermo Scientific, Waltham, MA, USA). The perimeter of the 96-well plate was filled with PBS. The old culture medium was then discarded, 200 μL of the sample solution was added (DMEM medium was used to dissolve the sample to the desired concentration), and control and blank groups were set up with DMEM medium. After incubating for 36 h, 200 μL of medium (containing 5% MTT) was added to each well instead of the original medium and cultured in the dark for 4 h. After the supernatant was discarded, 150 μL of DMSO was added, shaken for 20 min at room temperature, and the absorbance was detected at 490 nm by a microplate reader (ELx800, BioTek Instruments, Winooski, VT, USA). The MRPR (%) was calculated using the following formula:Macrophage relative proliferation rate (%) = (A1 − A3)/(A2 − A3) × 100 (1) where A1 and A2 represented the sample solution and DMEM medium with cells (sample and control group), respectively, and A3 represented DMEM medium with no cells (blank group).
For gastrointestinal digestion stability, computer simulated gastrointestinal digestion was first performed using the PeptideCutter (https://web.expasy.org/peptide_cutter/) (accessed on 20 June 2022) with a selection of pepsin (pH > 2) and trypsin. Then, six peptides (10 mg) were dissolved in 10 mL of distilled water, the pH was adjusted to pH 2.0 with 1 M HCl, and then 2% (w/w) pepsin was added and incubated at 37 °C for 2 h to simulate gastric digestion. The pH of the gastric digest was then adjusted to 5.3 with 0.9 M NaHCO3 solution and to pH 7.5 with 1 M NaOH solution. Following this, 2% (w/w) trypsin was added and incubated at 37 °C for 2 h to simulate intestinal digestion. After digestion, the digest was inactivated in a water bath at 100 °C for 10 min, centrifuged at 10,000 r/min for 10 min, and the supernatant was freeze-dried to obtain the gastric intestinal digest of each of the six synthetic peptides. The MRPR was determined using the sample without any treatment as the control.

[2] = system: TNF-α secretion; design: method as in doi:10.1016/j.jff.2020.103887; conditions: 100 μg/mL; cited from earlier work
[3] = system: splenic lymphocytes; design: method as in doi:10.1016/j.jff.2020.103887; conditions: 100 μg/mL; cited from earlier work
[4] = design: method as in doi:10.1016/j.jff.2020.103887; conditions: 100 μg/mL; cited from earlier work

**Q.** For `CSCC[C@H](NC(=O)CNC(=O)[C@@H]1CCCN1)C(=O)N[C@@H](CCCNC(=N)N)C(=O)O` [PGMR] (H-PGMR-OH), which “Change of activity (MRPR) through gastrointestinal digestion, in words” value ([1]; pepsin then trypsin, 37 °C, 2 h each, versus untreated group) is on record?
**A.** decreased, but was not significantly different

**Q.** With `N=C(N)NCCC[C@H](NC(=O)[C@H](CCC(N)=O)NC(=O)[C@@H](N)Cc1c[nH]c2ccccc12)C(=O)O` [WQR] (H-Trp-Gln-Arg-OH) as the molecule, how does the “Maximal increase of MRPR through gastrointestinal digestion compared with the untreated group” value ([1]; read-out MRPR) read?
**A.** 7.36%

**Q.** For GPQGPPGH [GPQGPPGH], which “Maximal increase of MRPR through gastrointestinal digestion compared with the untreated group” value ([1]; read-out MRPR) is on record?
**A.** 4.17%

**Q.** What does the source list for PSPFPYFT [PSPFPYFT]?
**A.** MRPR after the action of pepsin ([1]; 2% (w/w) pepsin, pH 2.0, 37 °C, 2 h, read-out MRPR, mean ± SD): 143.06 ± 7.71%; MRPR after the action of trypsin ([1]; after pepsin step, 2% (w/w) trypsin, pH 7.5, 37 °C, 2 h, read-out MRPR, mean ± SD): 148.80 ± 0.41%

**Q.** Which “TNF-α secretion upregulated to” value [2] does the source give for “RGPPP [Pseudostellaria heterophylla peptide from the literature]” here?
**A.** 827.24 pg/mL

**Q.** What about the “Stimulation index on splenic lymphocytes” value [3] of the same molecule?
**A.** 1.27

**Q.** And the “Cytokinesis rate increased to” value [4]?
**A.** 123.81%

**Q.** For SAGFPEGF [SAGFPEGF], which “Increase of MRPR in the gastric digestion” value ([1]; 2% (w/w) pepsin, pH 2.0, 37 °C, 2 h, versus untreated) is on record?
**A.** 11.23%
